Laboratory results as given in patent US11084800B2 (Achillion Pharmaceuticals, Inc., priority 2017, dated 2021).

biological target: Human Factor D (Homo sapiens (Human), UniProt P00746); experiment: Human Factor D Assay; assay type: biochemical; conditions: Factor D inhibition, assay of Example 10; read-out: IC5 (Stars)
How it was run: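 Serum-purified Factor D (80 nM final) preincubated 5 min at room temperature with compound in 50 mM Tris, 1 M NaCl, pH 7.5. Z-L-Lys-SBz and DTNB added at 100 μM each; A405 followed every 30 s for 30 min. IC50 from nonlinear regression of rates versus concentration.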

Sequence of Human Factor D (P00746 26-253): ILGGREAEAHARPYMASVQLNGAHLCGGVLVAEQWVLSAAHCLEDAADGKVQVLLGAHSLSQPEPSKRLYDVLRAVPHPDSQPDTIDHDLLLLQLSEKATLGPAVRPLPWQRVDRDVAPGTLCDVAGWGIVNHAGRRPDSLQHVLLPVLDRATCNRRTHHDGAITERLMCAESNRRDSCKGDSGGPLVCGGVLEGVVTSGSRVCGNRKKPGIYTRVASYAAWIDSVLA

Question: How did the IC50 turn out when `CC(=O)c1nn(CC(=O)N2C[C@H]3C[C@H]3[C@H]2C(=O)Nc2nc(Br)c(F)cc2C)c2c(C)nc(-c3cnc(C)nc3)cc12` [Compound 393, (1R,2S,5S)-3-(2-(3-acetyl-7-methyl-5-(2-methylpyrimidin-5-yl)-1H-pyrazolo[3,4-c]pyridin-1-yl)acetyl)-N-(6-bromo-5-fluoro-3-methylpyridin-2-yl)-3-azabicyclo[3.1.0]hexane-2-carboxamide] was run?
Answer: Its IC50 is < 1000 nM.

Question: How did the IC50 turn out when `COc1cc2c(cc1-c1cnc(C)nc1)c(C(C)=O)nn2CC(=O)N1[C@H](C(=O)Nc2nc(Br)ccc2C)C[C@@]2(C)C[C@@H]12` [Compound 394, (1R,3S,5R)-2-(2-(3-acetyl-6-methoxy-5-(2-methylpyrimidin-5-yl)-1H-indazol-1-yl)acetyl)-N-(6-bromo-3-methylpyridin-2-yl)-5-methyl-2-azabicyclo[3.1.0]hexane-3-carboxamide] was run?
Answer: Its IC50 is < 1000 nM.

Question: For `COC(=O)c1cc2c(cc1-c1cnc(C)nc1)c(C(C)=O)nn2CC(=O)N1[C@H](C(=O)Nc2nc(Br)ccc2C)C[C@@]2(C)C[C@@H]12` [Compound 395, methyl 3-acetyl-1-(2-((1R,3S,5R)-3-((6-bromo-3-methylpyridin-2-yl)carbamoyl)-5-methyl-2-azabicyclo[3.1.0]hexan-2-yl)-2-oxoethyl)-5-(2-methylpyrimidin-5-yl)-1H-indazole-6-carboxylate], which IC50 is on record?
Answer: The IC50 was < 1000 nM.

Question: How did the IC50 turn out when `CC(=O)c1nn(CC(=O)N(C(=O)[C@@H]2C[C@@]3(C)C[C@H]3N2)c2nc(Br)ccc2CN(CCC(F)(F)F)CCC(F)(F)F)c2cnc(-c3cnc(C)nc3)cc12` [Compound 396, (1R,3S,5R)-2-(2-(3-acetyl-5-(2-methylpyrimidin-5-yl)-1H-pyrazolo[3,4-c]pyridin-1-yl)acetyl)-N-(3-((bis(3,3,3-trifluoropropyl)amino)methyl)-6-bromopyridin-2-yl)-5-methyl-2-azabicyclo[3.1.0]hexane-3-carboxamide] was run?
Answer: The IC50 was < 1000 nM.

Question: How did the IC50 turn out when `CC(=O)c1nn(CC(=O)N2[C@H](C(=O)Nc3nc(Br)ccc3Cc3nn[nH]n3)C[C@@]3(C)C[C@@H]23)c2cnc(-c3cnc(C)nc3)cc12` [Compound 397, (1R, 3S, 5R)—N-(3-((2H-Tetrazol-5-yl)methyl)-6-bromopyridin-2-yl)-2-(2-(3-acetyl-5-(2-methylpyrimidin-5-yl)-1H-pyrazolo[3,4-c]pyridin-1-yl)acetyl)-5-methyl-2-azabicyclo[3.1.0]hexane-3-carboxamide] was run?
Answer: The IC50 was < 1000 nM.

Question: `CC(=O)c1nn(CC(=O)N2[C@H](C(=O)Nc3nc(Br)ccc3CN(C)C)C[C@@]3(C)C[C@@H]23)c2cc(Cl)c(-c3cnc(C)nc3)cc12` [Compound 399, (1R,3S,5R)-2-(2-(3-acetyl-6-chloro-5-(2-methylpyrimidin-5-yl)-1H-indazol-1-yl)acetyl)-N-(6-bromo-3-((dimethylamino)methyl)pyridin-2-yl)-5-methyl-2-azabicyclo[3.1.0]hexane-3-carboxamide] was tested. Which IC50 did it give?
Answer: The IC50 was < 1000 nM.

Question: How did the IC50 turn out when `CC(=O)c1nn(CC(=O)N2[C@H](C(=O)Nc3nc(Br)ccc3CCCN3CCOCC3)C[C@@]3(C)C[C@@H]23)c2cnc(-c3cnc(C)nc3)cc12` [Compound 400, (1R,3S,5R)-2-(2-(3-Acetyl-5-(2-methylpyrimidin-5-yl)-1H-pyrazolo[3,4-c]pyridin-1-yl)acetyl)-N-(6-bromo-3-(3-morpholinopropyl)pyridin-2-yl)-5-methyl-2-azabicyclo[3.1.0]hexane-3-carboxamide] was run?
Answer: The IC50 was < 1000 nM.

Question: For `Cc1ncc(-c2cc3c(C(C)O)nn(CC(=O)N4[C@H](C(=O)Nc5nc(Br)ccc5C)C[C@@]5(C)C[C@@H]45)c3cn2)cn1` (stereo partly drawn) [Compound 402, (1R,3S,5R)-N-(6-bromo-3-methylpyridin-2-yl)-2-(2-(3-(1-hydroxyethyl)-5-(2-methylpyrimidin-5-yl)-1H-pyrazolo[3,4-c]pyridin-1-yl)acetyl)-5-methyl-2-azabicyclo[3.1.0]hexane-3-carboxamide], which IC50 is on record?
Answer: The IC50 was 1000 to 10000 nM.

Question: Which IC50 does the source give for `Cc1ncc(-c2cc(C)c3c(c2)c(C#N)nn3CC(=O)N2[C@H](C(=O)Nc3nc(Br)ccc3C)C[C@@]3(C)C[C@@H]23)cn1` [Compound 407, (1R,3S,5R)-N-(6-bromo-3-methylpyridin-2-yl)-2-(2-(3-cyano-7-methyl-5-(2-methylpyrimidin-5-yl)-1H-indazol-1-yl)acetyl)-5-methyl-2-azabicyclo[3.1.0]hexane-3-carboxamide] here?
Answer: Its IC50 is < 1000 nM.

Question: Which IC50 does the source give for `CC(=O)c1nn(CC(=O)N2[C@H](C(=O)Nc3nc(Br)ccc3CN(C)C)C[C@@]3(C)C[C@@H]23)c2c(Cl)cc(-c3cnc(C)nc3)cc12` [Compound 408, (1R,3S,5R)-2-(2-(3-acetyl-7-chloro-5-(2-methylpyrimidin-5-yl)-1H-indazol-1-yl)acetyl)-N-(6-bromo-3-((dimethylamino)methyl)pyridin-2-yl)-5-methyl-2-azabicyclo[3.1.0]hexane-3-carboxamide] here?
Answer: Its IC50 is < 1000 nM.

Question: With `CC(=O)c1nn(CC(=O)N2[C@H](C(=O)Nc3nc(Br)ccc3C)C[C@@]3(Cc4nc(C)no4)C[C@@H]23)c2c(CF)cc(-c3cnc(C)nc3)cc12` [Compound 409, (1R,3S,5R)-2-(2-(3-acetyl-7-(fluoromethyl)-5-(2-methylpyrimidin-5-yl)-1H-indazol-1-yl)acetyl)-N-(6-bromo-3-methylpyridin-2-yl)-5-((3-methyl-1,2,4-oxadiazol-5-yl)methyl)-2-azabicyclo[3.1.0]hexane-3-carboxamide] as the compound, how does the IC50 read?
Answer: Its IC50 is < 1000 nM.

same assay, conditions: Table 8; Factor D 80 nM, substrate Z-L-Lys-SBz; read-out: IC50

Question: `CC(=O)c1nn(CC(=O)N2[C@H](C(=O)Nc3nc(Br)ccc3C)C[C@@]3(CNC(=O)COCCOCCNC(=O)COCCOCCNC(=O)CC[C@H](NC(=O)CCCCCCCCCCCCCCCCC(=O)O)C(=O)O)C[C@@H]23)c2c(C)cc(-c3cnc(C)nc3)cc12` [Compound 392, (S)-1-((1R,3S,5R)-2-(2-(3-Acetyl-7-methyl-5-(2-methylpyrimidin-5-yl)-1H-indazol-1-yl)acetyl)-3-((6-bromo-3-methylpyridin-2-yl)carbamoyl)-2-azabicyclo[3.1.0]hexan-5-yl)-24-carboxy-3,12,21,26-tetraoxo-5,8,14,17-tetraoxa-2,11,20,25-tetraazatritetracontan-43-oic acid] was tested. Which IC50 did it give?
Answer: The IC50 was < 1000 nM.

Question: For `COC(=O)CCCCCCCCCCCCCCCCC(=O)N[C@@H](CCC(=O)NCCOCCOCC(=O)NCCOCCOCC(=O)NCc1ncc(-c2cc(C)c3c(c2)c(C(C)=O)nn3CC(=O)N2[C@H](C(=O)Nc3nc(Br)ccc3C)C[C@@]3(C)C[C@@H]23)cn1)C(=O)O` [Compound 403], which IC50 is on record?
Answer: Its IC50 is < 1000 nM.

Question: With `CC(=O)c1nn(CC(=O)N2[C@H](C(=O)Nc3nc(Br)ccc3C)C[C@@]3(C)C[C@@H]23)c2c(C)cc(-c3cnc(CNC(=O)COCCOCCNC(=O)COCCOCCNC(=O)CC[C@H](NC(=O)CCCCCCCCCCCCCCCCC(=O)O)C(=O)O)nc3)cc12` [Compound 404] as the compound, how does the IC50 read?
Answer: Its IC50 is < 1000 nM.

Question: Which IC50 does the source give for `COC(=O)CCCCCCCCCCCCCCCCC(=O)N[C@@H](CCC(=O)NCCOCCOCC(=O)NCCOCCOCC(=O)NCc1ncc(-c2cc3c(C(C)=O)nn(CC(=O)N4[C@H](C(=O)Nc5nc(Br)ccc5C)C[C@@]5(C)C[C@@H]45)c3cn2)cn1)C(=O)OC` [Compound 405] here?
Answer: Its IC50 is < 1000 nM.

Question: With `COC(=O)CCCCCCCCCCCCCCCCC(=O)N[C@@H](CCC(=O)NCCOCCOCC(=O)NCCOCCOCC(=O)NC[C@@]12C[C@@H](C(=O)Nc3nc(Br)ccc3C)N(C(=O)Cn3nc(C(C)=O)c4cc(-c5cnc(C)nc5)ncc43)[C@@H]1C2)C(=O)OC` [Compound 406] as the compound, how does the IC50 read?
Answer: The IC50 was < 1000 nM.
